Values quoted from earlier work as cited in patent publication EP1219700A1, “Cleaning compositions” (UNILEVER PLC, priority 2000, dated 2002).

Details: at 20°C; other common materials, by contrast

Row | SMILES | Water Solubility (g/100g)
1 | O=BO[O-].[Na+] [Sodium perborate anhydrous] | 3.7
2 | O=P(O)(O)OP(=O)(O)OP(=O)(O)O [Sodium tripolyphosphate anhydrous] | 15
